US5374601A, “Thermal transfer sheet” (Dai Nippon Printing Co., Ltd., priority 1991, dated 1994)

Tested on: Salmonella TA1538 and TA98
Assay: Ames test (preincubation method, metabolically activated, +x9mix)
Conditions: 0 to 5 mg; for Increase (times): maximum increase in the colony of the sample as compared with the solvent control: acetone as solvent control; for Toxicity (mutagenicity): judged against solvent control
Description: Ames test was conducted as an identical amest test with respect to representative examples of the intermediate of the present invention and control dyes having the same structure as that of the intermediate of the present invention, except that the ring was a pyridine ring instead of the phenyl ring.
The ames test was conducted in such a state that Salmonella TA1538 and TA98 were metabolically activated by a preincubation method (+x9mix). The dye was used in contentrations in five grades in the range of from 0 to 5 mg. Acetone was used as the solvent control. The toxicity was judged based on the maximum increase in the colony of the sample as compared with the solvent control. Specifically, when the increase in the reversion colony was twice or more as compared with that in the case of the control, the mutagenicity was judged as positive, while when the increase in the reversion colony was less than twice as compared with that in the case of the control, the mutagenicity was judged as negative.

Row | SMILES | Increase (times): maximum increase in the colony of the sample as compared with the solvent control | Toxicity (mutagenicity)
1 | CCN(CC)c1ccc(N=Nc2cn(-c3ccccc3)nc2C)cn1 | 1.5 times | neg- ative
2 | CCN(CC)c1ccc(N=C2C=C(NC(C)=O)C(=O)C(Cl)=C2C)cn1 | 1.5 times | neg- ative
3 | CCN(CC)c1ccc(N=Nc2cn(-c3ccccc3)nc2C)cc1 | 2.2 times | pos- itive
4 | CCN(CC)c1ccc(N=C2C=C(NC(C)=O)C(=O)C(Cl)=C2C)cc1 | 1.7 times | neg- ative
